Where “and” joins values, the source holds several entries; their conditions need not be identical. Identical values can stand only once. Records with an inconclusive call do not appear.
Tested on: Lewis lung carcinoma i.m., BDF1 mice, T/C %
Test: NCI In Vivo Anticancer Drug Screen. Data for tumor model Lewis Lung Carcinoma (intramuscular) in B6D2F1 (BDF1) mice
Procedure, shortened: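 Transplantable tumour model; readout survival or tumour size; value = treated (T) / vehicle control (C).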

[1] = endpoint: mean tumor weight, dose: 25.0 mg/kg/injection, schedule: Q01DX011 (ip), vehicle: saline, higher = larger tumour
[2] = endpoint: mean tumor weight, dose: 50.0 mg/kg/injection, schedule: Q01DX011 (ip), vehicle: saline, higher = larger tumour
[3] = endpoint: mean tumor weight, dose: 100.0 mg/kg/injection, schedule: Q01DX011 (ip), vehicle: saline, higher = larger tumour
[4] = endpoint: median survival time, dose: 25.0 mg/kg/injection, schedule: Q01DX011 (ip), vehicle: saline, higher = longer survival
[5] = endpoint: median survival time, dose: 50.0 mg/kg/injection, schedule: Q01DX011 (ip), vehicle: saline, higher = longer survival
[6] = endpoint: median survival time, dose: 100.0 mg/kg/injection, schedule: Q01DX011 (ip), vehicle: saline, higher = longer survival

N[C@@H](Cc1ccc(N(CCCl)CCCl)cc1)C(=O)O
T/C (endpoint: mean tumor weight, dose: 0.38 mg/kg/injection, schedule: Q01DX011 (ip), vehicle: other, higher = larger tumour): 55 % of control
T/C (endpoint: mean tumor weight, dose: 0.38 mg/kg/injection, schedule: Q01DX011 (ip), vehicle: saline, higher = larger tumour): 86 % of control
T/C (endpoint: mean tumor weight, dose: 0.75 mg/kg/injection, schedule: Q01DX011 (ip), vehicle: other, higher = larger tumour): 48 % of control
T/C (endpoint: mean tumor weight, dose: 0.75 mg/kg/injection, schedule: Q01DX011 (ip), vehicle: saline, higher = larger tumour): 77 % of control
T/C (endpoint: mean tumor weight, dose: 1.5 mg/kg/injection, schedule: Q01DX011 (ip), vehicle: other, higher = larger tumour): 69 % of control
T/C (endpoint: mean tumor weight, dose: 3.0 mg/kg/injection, schedule: Q01DX011 (ip), vehicle: other, higher = larger tumour): 29 % of control
T/C (endpoint: mean tumor weight, dose: 3.0 mg/kg/injection, schedule: Q01DX011 (ip), vehicle: saline, higher = larger tumour): 47 % of control and 59 % of control
T/C (endpoint: median survival time, dose: 0.38 mg/kg/injection, schedule: Q01DX011 (ip), vehicle: other, higher = longer survival): 111 % of control
T/C (endpoint: median survival time, dose: 0.38 mg/kg/injection, schedule: Q01DX011 (ip), vehicle: saline, higher = longer survival): 105 % of control and 112 % of control
T/C (endpoint: median survival time, dose: 0.6 mg/kg/injection, schedule: Q01DX011 (ip), vehicle: saline, higher = longer survival): 104 % of control and 116 % of control
T/C (endpoint: median survival time, dose: 0.75 mg/kg/injection, schedule: Q01DX011 (ip), vehicle: other, higher = longer survival): 118 % of control
T/C (endpoint: median survival time, dose: 0.75 mg/kg/injection, schedule: Q01DX011 (ip), vehicle: saline, higher = longer survival): 110 % of control and 112 % of control and 120 % of control
T/C (endpoint: median survival time, dose: 1.2 mg/kg/injection, schedule: Q01DX011 (ip), vehicle: saline, higher = longer survival): 108 % of control
T/C (endpoint: median survival time, dose: 1.5 mg/kg/injection, schedule: Q01DX011 (ip), vehicle: other, higher = longer survival): 101 % of control
T/C (endpoint: median survival time, dose: 1.5 mg/kg/injection, schedule: Q01DX011 (ip), vehicle: saline, higher = longer survival): 91 % of control
T/C (endpoint: median survival time, dose: 2.5 mg/kg/injection, schedule: Q01DX011 (ip), vehicle: saline, higher = longer survival): 103 % of control
T/C (endpoint: median survival time, dose: 3.24 mg/kg/injection, schedule: Q01DX001 (ip), vehicle: saline, higher = longer survival): 108 % of control
T/C (endpoint: median survival time, dose: 5.4 mg/kg/injection, schedule: Q01DX001 (ip), vehicle: saline, higher = longer survival): 119 % of control

N#CSCc1ccc(Cl)cc1Cl
T/C [1]: 75 % of control
T/C [2]: 56 % of control
T/C [3]: 25 % of control
T/C (endpoint: mean tumor weight, dose: 200.0 mg/kg/injection, schedule: Q01DX011 (ip), vehicle: saline, higher = larger tumour): 47 % of control
T/C [4]: 86 % of control
T/C [5]: 95 % of control
T/C [6]: 119 % of control
T/C (endpoint: median survival time, dose: 200.0 mg/kg/injection, schedule: Q01DX011 (ip), vehicle: saline, higher = longer survival): 106 % of control

CC(=O)[O][Hg][c]1s[c]([Hg][O]C(C)=O)[c]([Hg][O]C(C)=O)[c]1[Hg][O]C(C)=O
T/C (endpoint: mean tumor weight (est.), dose: 6.25 mg/kg/injection, schedule: Q01DX011 (ip), vehicle: saline, higher = larger tumour): 45 % of control
T/C (endpoint: mean tumor weight (est.), dose: 12.5 mg/kg/injection, schedule: Q01DX011 (ip), vehicle: saline, higher = larger tumour): 37 % of control
T/C (endpoint: median survival time, dose: 12.5 mg/kg/injection, schedule: Q01DX011 (ip), vehicle: saline, higher = longer survival): 91 % of control

O=c1[nH]c2cc(Cl)ccc2c(CCl)c1Cl
T/C [1]: 112 % of control
T/C [2]: 101 % of control
T/C [3]: 115 % of control
T/C [4]: 95 % of control
T/C [5]: 102 % of control
T/C [6]: 89 % of control

CC(=O)NC(CS)C(=O)O (centres undefined)
T/C (endpoint: mean tumor weight (est.), dose: 750.0 mg/kg/injection, schedule: Q01DX009 (ip), vehicle: saline, higher = larger tumour): 91 % of control
T/C (endpoint: mean tumor weight (est.), dose: 1500.0 mg/kg/injection, schedule: Q01DX009 (ip), vehicle: saline, higher = larger tumour): 86 % of control

CCCCCCCCCCCCCCCC(=O)N(C/C=C/CN(CCCN(C)C)C(=O)CCCCCCCCCCCCCCC)CCCN(C)C
T/C (endpoint: mean tumor weight (est.), dose: 12.5 mg/kg/injection, schedule: Q01DX011 (ip), vehicle: saline with Tween-80, higher = larger tumour): 44 % of control
T/C (endpoint: median survival time, dose: 12.5 mg/kg/injection, schedule: Q01DX011 (ip), vehicle: saline with Tween-80, higher = longer survival): 92 % of control

From PubChem BioAssay AID272 (DTP/NCI, 2004)
